Measured values as given in ChEMBL document CHEMBL1201862, “PubChem BioAssay data set” (2004).
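Five compound concentrations were applied to cells in 96-well plates for 48 hours; endpoints were derived by simple linear interpolation of the resulting dose-response curve. GI50 = concentration required for 50% inhibition of growth.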 Active and inactive are the calls of the source. No stated cut-off is given here; in the data, active = GI50 up to about 1.1 µM and inactive = higher.

Experiments:
Assay in all cases: DTP human tumour cell line panel, 48 h
[1] = tested on: DLD-1
[2] = tested on: DMS-114
[3] = tested on: DMS-273
[4] = tested on: HOP-18
[5] = tested on: K562
[6] = tested on: KM-20L2
[7] = tested on: M19-MEL
[8] = tested on: OVCAR-4
[9] = tested on: RXF 393
[10] = tested on: SF-268
[11] = tested on: SK-MEL-2
[12] = tested on: SK-OV-3
[13] = tested on: SNB-78
[14] = tested on: ACHN
[15] = tested on: M14
[16] = tested on: DU-145
[17] = tested on: MDA-MB-231
[18] = tested on: SR
[19] = tested on: T47D
[20] = tested on: TK-10

Measured: GI50

c1ccc2cc3c(cc2c1)OP1(Oc2cccc4cccnc24)(O3)Oc2cc3ccccc3cc2O1
inactive: [1] 4.2 µM | [2] 1.79 µM | [3] 3.49 µM | [4] 9.48 µM | [5] 2.04 µM | [6] 3.39 µM | [7] 9.89 µM | [8] 3.61 µM | [9] 7.29 µM | [10] 4.81 µM | [11] 7.66 µM | [12] 34.7 µM | [13] 26.4 µM

CC(C)N/C(N)=N/C#N
inactive: [14] > 100 µM | [1] > 100 µM | [2] > 100 µM | [4] > 100 µM | [5] > 100 µM | [6] > 100 µM | [15] > 100 µM | [7] > 100 µM | [8] > 100 µM | [10] > 100 µM | [11] > 100 µM | [12] > 100 µM | [13] > 100 µM

COC(=O)N1CC2C3C4CC(C(c5ccccc5)=C4c4ccccc4)C3C21 (stereo not given)
inactive: [14] 23.3 µM | [16] 14.7 µM | [5] 6.04 µM | [15] 26.8 µM | [17] 7.35 µM | [8] 13.1 µM | [9] 17.7 µM | [10] 16.3 µM | [11] 19.8 µM | [12] 20 µM | [18] 11.1 µM | [19] 9.82 µM | [20] 15.8 µM

CCOC(=O)C[n+]1ccc2c([nH]c3cc(OC)ccc32)c1C
inactive: [1] > 100 µM | [2] > 83.2 µM | [3] > 100 µM | [4] > 100 µM | [5] > 100 µM | [6] > 65.2 µM | [7] > 100 µM | [8] > 100 µM | [9] > 100 µM | [10] > 100 µM | [11] > 100 µM | [12] > 100 µM | [13] > 100 µM

CCC(/C=C/c1ccccc1)=N\Nc1ccc(Cl)c(Cl)c1
inactive: [14] 26.7 µM | [16] 89.1 µM | [5] 32.9 µM | [15] 56.4 µM | [17] 17.8 µM | [9] 26.7 µM | [10] 36.3 µM | [11] 17.7 µM | [12] 27.4 µM | [18] 34.8 µM | [19] 49.9 µM | [20] 56.6 µM

Cc1ccc(C(=O)N/N=C(\N=N\c2ccc([N+](=O)[O-])cc2)c2ccc(N(CCC#N)CCC#N)cc2C)cc1
inactive: [14] > 100 µM | [16] 97.1 µM | [5] 66.2 µM | [15] 58.3 µM | [17] > 100 µM | [8] 99.8 µM | [9] 16.7 µM | [10] > 100 µM | [11] 49.5 µM | [12] > 100 µM | [18] 63.8 µM | [19] 26.6 µM | [20] > 100 µM

Cc1ccc(OP2(=O)Oc3ccc4ccccc4c3CN2c2ccc(Cl)cc2)cc1C (stereo not given)
inactive: [1] > 100 µM | [2] > 100 µM | [3] > 100 µM | [4] > 100 µM | [5] > 100 µM | [6] > 100 µM | [7] > 100 µM | [8] > 100 µM | [9] > 100 µM | [10] > 100 µM | [11] > 100 µM | [12] > 100 µM | [13] > 100 µM

Cc1ccccc1NC(=O)C(=O)C(C1OC(=O)c2ccccc21)[N+](=O)[O-] (stereo not given)
inactive: [14] > 100 µM | [1] > 100 µM | [2] > 100 µM | [3] > 100 µM | [5] > 100 µM | [6] > 100 µM | [15] > 100 µM | [7] > 100 µM | [8] > 100 µM | [9] > 100 µM | [10] > 100 µM | [11] > 100 µM | [12] > 100 µM | [13] > 100 µM | [18] > 100 µM | [20] > 100 µM

O=C1OCc2cccc3c2-c2c1cccc2C(=O)OC3
inactive: [1] > 100 µM | [2] > 100 µM | [4] > 100 µM | [5] > 100 µM | [6] > 100 µM | [15] > 100 µM | [7] > 100 µM | [8] > 100 µM | [9] > 100 µM | [10] > 100 µM | [11] > 100 µM | [12] > 100 µM | [13] > 100 µM | [18] > 100 µM | [20] > 100 µM

BrC1=CN2C[n+]3cc(Br)c4ccccc4c3N=C2c2ccccc21
inactive: [14] 14.8 µM | [16] 16.6 µM | [5] 6.34 µM | [15] 5.92 µM | [17] 15 µM | [8] 7.76 µM | [10] 8.55 µM | [11] 7.57 µM | [12] 22 µM | [18] 3.18 µM | [19] 4.14 µM | [20] 26.8 µM

S=C(NCCCCCCNC(=S)Nc1c2ccccc2nc2ccccc12)Nc1c2ccccc2nc2ccccc12
inactive: [1] 70.1 µM | [3] 65.9 µM | [4] > 100 µM | [5] 51.9 µM | [6] 79.4 µM | [7] > 100 µM | [8] 70 µM | [9] > 100 µM | [10] > 100 µM | [11] > 100 µM | [12] > 100 µM | [13] > 87.7 µM

O=C(O)C1CCC(=O)N1S(=O)(=O)c1ccccc1 (stereo not given)
inactive: [1] > 100 µM | [2] > 100 µM | [3] > 100 µM | [4] > 100 µM | [5] > 100 µM | [6] > 100 µM | [7] > 100 µM | [8] > 100 µM | [9] > 100 µM | [10] > 96.2 µM | [11] > 100 µM | [12] > 100 µM | [13] > 100 µM

CO/N=C(\C)c1ccc(Nc2nc3ccccc3c3occc23)cc1
inactive: [14] 14 µM | [16] 15.5 µM | [5] 20.2 µM | [15] 16.3 µM | [17] 12.7 µM | [10] 16.4 µM | [11] 18 µM | [12] 15.9 µM | [18] 24.7 µM | [19] 12.6 µM | [20] 12.4 µM

CSCSCC(N)CO.Cc1[nH]c(=O)[nH]c(=O)c1/C=C/C(=O)O
inactive: [1] > 625 µM | [2] > 625 µM | [3] > 625 µM | [4] > 625 µM | [5] > 625 µM | [6] > 625 µM | [7] > 625 µM | [8] > 625 µM | [9] > 625 µM | [10] > 625 µM | [11] > 625 µM | [12] > 625 µM | [13] 618 µM

COc1ccccc1-c1cc(O)c2c(C)ccnc2n1
inactive: [14] 28.4 µM | [16] 41.2 µM | [5] 14.2 µM | [15] 42.4 µM | [17] 26.7 µM | [8] 46.2 µM | [9] 29.7 µM | [10] 45.5 µM | [11] 26.7 µM | [12] 23 µM | [18] 14.2 µM | [19] 16.2 µM | [20] > 100 µM
